Consider 16 compounds from ChEMBL document CHEMBL5113380, “Functionalized quinoxalinones as privileged structures with broad-ranging pharmacological activities” (Eur J Med Chem, 2022).

Usually IC50 stands for the concentration that inhibits the measured activity by half. For orientation: Ki means a dissociation constant, usually derived from enzyme kinetics or from competition with a known ligand. Read a high Ki as lower affinity. The term MBC denotes the lowest tested concentration that kills the bacteria rather than only halting them. Lower therefore signals more potent killing. As a reminder, the MIC is the lowest concentration found to suppress growth. A higher MIC goes with a less susceptible organism. What is called CC50 is the concentration at which the toxic effect on the cells reaches its halfway point. A lower CC50 goes with greater toxicity to the cells. What is called MIC90 is an inhibitory concentration at the 90% level, which refers to growth in some studies and to a panel of isolates in others. Broadly, the logD is the decadic logarithm of the distribution of all forms, ionised or not, between an organic phase and buffer at a given pH. The low end stands for a more hydrophilic compound, the high end for a more lipophilic compound. In general, pKa refers to the negative logarithm of the acid dissociation constant. A low value points to a stronger acid or weaker base.

Values after ≈ are worked out from the molar mass of the structure shown.

In series [1] the test system is Staphylococcus aureus. Put plainly: Antibacterial activity against Staphylococcus aureus assessed as diameter zone of inhibition. The series is classed as functional.
The subject of series [2] is Bacillus subtilis. Description: Antibacterial activity against Bacillus subtilis assessed as diameter zone of inhibition. In kind it is functional.
The subject of series [3] is Escherichia coli. Description: Antibacterial activity against Escherichia coli assessed as diameter zone of inhibition. The series is classed as functional.
Series [4] has as its system Pseudomonas aeruginosa. Description: Antibacterial activity against Pseudomonas aeruginosa assessed as diameter zone of inhibition. In kind it is functional.
Series [5] relates to Salmonella typhimurium. Description: Antibacterial activity against Salmonella typhimurium assessed as diameter zone of inhibition. The series is classed as functional, Salmonella enterica subsp. enterica serovar Typhimurium.
Series [6] relates to Streptococcus pneumoniae. Description: Antibacterial activity against Streptococcus pneumoniae assessed as diameter zone of inhibition. The series is classed as functional.
In series [7] the test system is MCF7. Put plainly: Antiproliferative activity against human MCF7 cells. The series is classed as functional, cell-based.
Series [8] deals with HepG2. Description: Antiproliferative activity against human HepG2 cells. The series is classed as functional, cell-based.
Series [9] concerns the target Epidermal growth factor receptor (Homo sapiens, UniProt P00533). Put plainly: Inhibition of wild-type EGFR (unknown origin).
For series [10], the target named is Epidermal growth factor receptor (Homo sapiens, UniProt P00533, L858R). Description: Inhibition of EGFR L858R mutant (unknown origin).
Series [11] relates to HCT-116. Description: Antiproliferative activity against human HCT-116 cells. In kind it is functional, cell-based.
Series [12] has as its system WI-38. Description: Antiproliferative activity against human WI-38 cells. The series is classed as functional, cell-based.
The target in series [13] is T1, Glutamate receptor ionotropic AMPA (Homo sapiens, UniProt P42261+P42262+P42263+P48058). Description: Displacement of [3H]AMPA from AMPA receptor (unknown origin). The series is classed as protein-complex assay. A general note: Displacement assays read how much labelled ligand stays bound in the presence of the test substance.
A short description of series [14]: Inhibition of KA-induced cytotoxicity in human hippocampal cell culture. In kind it is toxicity, cell-based. The following applies: Hippocampal neurone.
Series [15] concerns Staphylococcus aureus. Description: Antibacterial activity against Staphylococcus aureus. The series is classed as functional.
The nature of series [16]: Cytotoxicity against mock-infected human MT4 cells. The series is classed as toxicity, cell-based.
In series [17] the test system is Pseudomonas aeruginosa. Put plainly: Antibacterial activity against Pseudomonas aeruginosa. In kind it is functional.
Series [18] deals with Escherichia coli. Put plainly: Antibacterial activity against Escherichia coli. The series is classed as functional.
Series [19] deals with Klebsiella pneumoniae. Description: Antibacterial activity against Klebsiella pneumoniae. In kind it is functional.
The nature of series [20]: Inhibition of Escherichia coli topoisomerase 4.
Series [21] can be described thus: Lipophilicity, logD of compound. The following applies: octanol/water. The series is classed as physicochemical.
In series [22] the target is Voltage-gated inwardly rectifying potassium channel KCNH2 (Homo sapiens, UniProt Q12809). Description: Inhibition of hERG. The series is classed as toxicity. Background: The hERG channel carries a current that helps repolarise heart muscle cells.
Series [23] can be described thus: Dissociation constant, pKa of the compound. The series is classed as physicochemical.
For series [24], the target named is T1, Glutamate receptor ionotropic AMPA. Put plainly: Displacement of [3H]CNQX from AMPA receptor (unknown origin). In kind it is protein-complex assay.
Series [25] shares this target. Put plainly: Displacement of [3H]kainic acid from AMPA receptor (unknown origin). The series is classed as protein-complex assay.
The nature of series [26]: Displacement of [3H]glycine from AMPA receptor (unknown origin). In kind it is protein-complex assay, Homo sapiens.
Series [27] has as its target Glutamate [NMDA] receptor. Description: Displacement of [3H]MK-801 from NMDA receptor (unknown origin). The series is classed as protein-complex assay, Homo sapiens.
Series [28] concerns the target T1, Glutamate receptor ionotropic AMPA. Description: Antagonist activity at AMPA receptor (unknown origin) assessed as AMPA-induced depolarizations. The series is classed as protein-complex assay.
The target of series [29] is Glutamate [NMDA] receptor. Description: Antagonist activity at NMDA receptor (unknown origin) assessed as NMDA-induced depolarizations. The series is classed as protein-complex assay, Homo sapiens.
The target in series [30] is Glutamate receptor 2 (Homo sapiens, UniProt P42262). Put plainly: Binding affinity to GluA2 receptor (unknown origin).
The target in series [31] is Glutamate receptor ionotropic, kainate 2 (Homo sapiens, UniProt Q13002). Put plainly: Binding affinity to GluK2 receptor (unknown origin).
For series [32], the target named is T2, Glutamate receptor ionotropic, kainate 5 (Homo sapiens, UniProt Q16478).
T2 sequence (Q16478 whole entry): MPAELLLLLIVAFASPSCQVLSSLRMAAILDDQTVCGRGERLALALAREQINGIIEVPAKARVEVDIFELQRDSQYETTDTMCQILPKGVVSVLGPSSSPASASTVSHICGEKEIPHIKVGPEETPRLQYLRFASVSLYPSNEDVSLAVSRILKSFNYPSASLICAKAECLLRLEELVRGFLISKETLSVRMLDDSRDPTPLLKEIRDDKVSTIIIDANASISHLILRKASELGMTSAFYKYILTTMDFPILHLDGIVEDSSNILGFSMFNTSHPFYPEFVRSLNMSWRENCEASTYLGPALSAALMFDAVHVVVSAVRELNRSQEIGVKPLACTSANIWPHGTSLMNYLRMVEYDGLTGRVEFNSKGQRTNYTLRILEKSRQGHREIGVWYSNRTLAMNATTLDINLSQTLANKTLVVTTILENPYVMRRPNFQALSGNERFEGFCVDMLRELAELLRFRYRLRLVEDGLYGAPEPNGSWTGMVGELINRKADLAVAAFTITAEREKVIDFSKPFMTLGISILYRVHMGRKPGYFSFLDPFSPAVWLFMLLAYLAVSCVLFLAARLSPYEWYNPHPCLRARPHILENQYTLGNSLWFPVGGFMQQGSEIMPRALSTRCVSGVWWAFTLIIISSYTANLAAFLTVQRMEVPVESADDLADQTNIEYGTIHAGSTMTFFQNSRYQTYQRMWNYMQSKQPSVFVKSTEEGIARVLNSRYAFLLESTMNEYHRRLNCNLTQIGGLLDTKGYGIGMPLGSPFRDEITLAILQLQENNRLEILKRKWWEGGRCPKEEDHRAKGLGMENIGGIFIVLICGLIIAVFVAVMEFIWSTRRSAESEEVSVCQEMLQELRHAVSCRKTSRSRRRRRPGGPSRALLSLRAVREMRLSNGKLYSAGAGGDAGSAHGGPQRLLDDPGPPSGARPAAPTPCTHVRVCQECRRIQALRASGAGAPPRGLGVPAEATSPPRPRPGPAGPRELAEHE
Put plainly: Binding affinity to GluK5 receptor (unknown origin).

The nature of series [33]: Displacement of [3H]AMPA from NMDA receptor (unknown origin). The series is classed as protein-complex assay, Homo sapiens.
In series [34] the target is Glutamate [NMDA] receptor. Put plainly: Displacement of [3H]MDL from NMDA receptor (unknown origin). In kind it is protein-complex assay, Homo sapiens.
Series [35] deals with T1, Glutamate receptor ionotropic AMPA. Description: Binding affinity to AMPA receptor (unknown origin). The series is classed as protein-complex assay.
Series [36] addresses Glutamate receptor ionotropic, kainate 1 (Homo sapiens, UniProt P39086). Put plainly: Binding affinity to GluK1 receptor (unknown origin).

Chain of Glutamate receptor ionotropic, kainate 2 (Q13002 whole entry): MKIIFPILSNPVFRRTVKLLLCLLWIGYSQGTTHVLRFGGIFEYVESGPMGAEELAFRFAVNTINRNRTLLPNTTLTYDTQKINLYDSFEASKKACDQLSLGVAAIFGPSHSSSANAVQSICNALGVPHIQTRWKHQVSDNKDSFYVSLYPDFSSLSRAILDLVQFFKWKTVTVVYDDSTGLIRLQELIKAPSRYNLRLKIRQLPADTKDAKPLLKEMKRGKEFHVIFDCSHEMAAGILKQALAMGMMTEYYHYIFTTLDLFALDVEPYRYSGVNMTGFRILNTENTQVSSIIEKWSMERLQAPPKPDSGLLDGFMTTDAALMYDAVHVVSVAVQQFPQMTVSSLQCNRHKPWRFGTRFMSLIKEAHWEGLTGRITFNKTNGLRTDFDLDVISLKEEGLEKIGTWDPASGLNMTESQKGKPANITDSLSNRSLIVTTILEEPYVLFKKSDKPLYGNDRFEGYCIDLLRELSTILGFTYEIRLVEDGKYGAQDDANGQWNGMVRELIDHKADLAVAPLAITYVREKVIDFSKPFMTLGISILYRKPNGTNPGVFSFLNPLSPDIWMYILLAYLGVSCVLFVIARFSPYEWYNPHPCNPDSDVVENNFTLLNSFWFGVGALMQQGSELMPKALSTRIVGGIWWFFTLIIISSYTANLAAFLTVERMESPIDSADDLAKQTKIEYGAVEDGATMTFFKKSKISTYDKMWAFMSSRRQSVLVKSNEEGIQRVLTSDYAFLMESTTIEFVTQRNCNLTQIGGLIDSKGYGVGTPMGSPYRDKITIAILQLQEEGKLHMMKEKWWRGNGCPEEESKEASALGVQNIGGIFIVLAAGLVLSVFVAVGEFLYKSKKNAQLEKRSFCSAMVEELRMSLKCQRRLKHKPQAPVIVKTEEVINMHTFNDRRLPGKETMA
Chain of Voltage-gated inwardly rectifying potassium channel KCNH2 (Q12809 whole entry): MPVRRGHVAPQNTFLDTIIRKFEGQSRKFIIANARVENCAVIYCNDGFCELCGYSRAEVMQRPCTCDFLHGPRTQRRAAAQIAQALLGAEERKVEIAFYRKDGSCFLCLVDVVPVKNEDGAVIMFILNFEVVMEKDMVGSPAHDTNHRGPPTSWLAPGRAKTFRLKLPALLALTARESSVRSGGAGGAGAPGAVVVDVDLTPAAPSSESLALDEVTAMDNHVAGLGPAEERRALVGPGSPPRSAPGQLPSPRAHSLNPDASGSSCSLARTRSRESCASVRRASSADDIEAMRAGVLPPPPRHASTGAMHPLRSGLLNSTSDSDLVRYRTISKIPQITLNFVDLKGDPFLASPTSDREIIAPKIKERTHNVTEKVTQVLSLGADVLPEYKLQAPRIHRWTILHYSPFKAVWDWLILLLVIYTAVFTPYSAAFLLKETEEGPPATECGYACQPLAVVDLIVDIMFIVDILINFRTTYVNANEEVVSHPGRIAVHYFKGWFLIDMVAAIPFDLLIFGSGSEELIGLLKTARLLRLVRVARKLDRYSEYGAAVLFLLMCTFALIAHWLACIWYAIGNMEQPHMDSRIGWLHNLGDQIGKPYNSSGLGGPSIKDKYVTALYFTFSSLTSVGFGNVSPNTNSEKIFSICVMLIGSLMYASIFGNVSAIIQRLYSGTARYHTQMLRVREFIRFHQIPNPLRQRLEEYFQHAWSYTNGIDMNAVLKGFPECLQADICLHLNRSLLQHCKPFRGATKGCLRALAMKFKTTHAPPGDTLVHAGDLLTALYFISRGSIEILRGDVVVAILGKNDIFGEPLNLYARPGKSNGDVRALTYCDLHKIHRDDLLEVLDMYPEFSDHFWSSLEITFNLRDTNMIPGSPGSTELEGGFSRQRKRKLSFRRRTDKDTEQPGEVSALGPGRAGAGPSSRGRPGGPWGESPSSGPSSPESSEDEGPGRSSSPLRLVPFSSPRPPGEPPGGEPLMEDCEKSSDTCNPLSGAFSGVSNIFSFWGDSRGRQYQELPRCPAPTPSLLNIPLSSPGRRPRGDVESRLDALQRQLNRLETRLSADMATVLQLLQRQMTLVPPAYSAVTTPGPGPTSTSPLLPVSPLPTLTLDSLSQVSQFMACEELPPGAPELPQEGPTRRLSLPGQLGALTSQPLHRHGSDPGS
Chain of Glutamate receptor 2 (P42262 whole entry): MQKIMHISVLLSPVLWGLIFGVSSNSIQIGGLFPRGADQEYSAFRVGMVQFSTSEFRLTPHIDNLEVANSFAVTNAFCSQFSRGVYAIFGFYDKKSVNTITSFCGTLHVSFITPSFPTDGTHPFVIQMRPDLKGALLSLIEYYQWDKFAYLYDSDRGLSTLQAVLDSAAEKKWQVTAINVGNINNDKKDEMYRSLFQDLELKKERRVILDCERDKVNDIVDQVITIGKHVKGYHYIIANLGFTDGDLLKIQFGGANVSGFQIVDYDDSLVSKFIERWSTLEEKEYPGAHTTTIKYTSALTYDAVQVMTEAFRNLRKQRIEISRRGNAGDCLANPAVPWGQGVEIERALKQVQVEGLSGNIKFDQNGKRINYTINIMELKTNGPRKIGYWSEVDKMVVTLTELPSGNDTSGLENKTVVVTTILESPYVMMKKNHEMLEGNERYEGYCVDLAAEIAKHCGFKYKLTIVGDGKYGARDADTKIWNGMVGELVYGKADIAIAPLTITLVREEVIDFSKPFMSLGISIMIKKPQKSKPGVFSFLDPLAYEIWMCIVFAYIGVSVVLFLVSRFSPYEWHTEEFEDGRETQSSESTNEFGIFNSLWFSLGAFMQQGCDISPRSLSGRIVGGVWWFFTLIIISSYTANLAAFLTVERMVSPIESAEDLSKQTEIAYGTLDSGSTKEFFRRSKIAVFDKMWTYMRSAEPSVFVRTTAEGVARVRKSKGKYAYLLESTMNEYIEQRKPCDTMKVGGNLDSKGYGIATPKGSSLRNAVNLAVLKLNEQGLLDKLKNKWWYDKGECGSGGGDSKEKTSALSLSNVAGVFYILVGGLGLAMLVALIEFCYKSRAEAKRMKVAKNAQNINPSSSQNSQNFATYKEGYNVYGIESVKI
Chain of Glutamate receptor ionotropic, kainate 1 (P39086 whole entry): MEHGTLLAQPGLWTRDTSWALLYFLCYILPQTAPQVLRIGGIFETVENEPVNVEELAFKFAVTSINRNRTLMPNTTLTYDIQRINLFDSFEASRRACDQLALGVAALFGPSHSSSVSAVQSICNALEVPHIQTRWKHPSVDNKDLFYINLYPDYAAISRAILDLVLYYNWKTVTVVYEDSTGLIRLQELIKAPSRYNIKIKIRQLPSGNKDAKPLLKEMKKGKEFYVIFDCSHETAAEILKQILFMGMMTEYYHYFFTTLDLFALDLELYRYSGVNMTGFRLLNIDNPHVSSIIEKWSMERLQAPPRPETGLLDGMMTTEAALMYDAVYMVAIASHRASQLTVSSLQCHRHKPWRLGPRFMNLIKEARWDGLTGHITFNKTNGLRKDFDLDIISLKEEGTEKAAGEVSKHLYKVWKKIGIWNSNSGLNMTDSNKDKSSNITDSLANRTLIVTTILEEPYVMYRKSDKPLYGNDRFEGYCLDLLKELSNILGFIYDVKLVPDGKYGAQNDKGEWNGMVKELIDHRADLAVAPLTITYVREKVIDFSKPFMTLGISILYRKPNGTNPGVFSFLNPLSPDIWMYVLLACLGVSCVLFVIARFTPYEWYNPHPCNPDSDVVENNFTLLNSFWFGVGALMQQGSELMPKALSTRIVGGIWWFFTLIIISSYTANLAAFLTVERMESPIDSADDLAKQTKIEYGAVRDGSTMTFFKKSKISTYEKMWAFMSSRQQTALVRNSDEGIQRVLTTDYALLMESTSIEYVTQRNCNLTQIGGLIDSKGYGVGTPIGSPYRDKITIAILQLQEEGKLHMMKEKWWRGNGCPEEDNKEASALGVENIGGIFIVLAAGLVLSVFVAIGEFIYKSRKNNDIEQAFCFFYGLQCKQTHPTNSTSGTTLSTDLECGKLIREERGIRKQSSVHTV
Chain of Epidermal growth factor receptor (Homo sapiens, UniProt P00533) (P00533 whole entry): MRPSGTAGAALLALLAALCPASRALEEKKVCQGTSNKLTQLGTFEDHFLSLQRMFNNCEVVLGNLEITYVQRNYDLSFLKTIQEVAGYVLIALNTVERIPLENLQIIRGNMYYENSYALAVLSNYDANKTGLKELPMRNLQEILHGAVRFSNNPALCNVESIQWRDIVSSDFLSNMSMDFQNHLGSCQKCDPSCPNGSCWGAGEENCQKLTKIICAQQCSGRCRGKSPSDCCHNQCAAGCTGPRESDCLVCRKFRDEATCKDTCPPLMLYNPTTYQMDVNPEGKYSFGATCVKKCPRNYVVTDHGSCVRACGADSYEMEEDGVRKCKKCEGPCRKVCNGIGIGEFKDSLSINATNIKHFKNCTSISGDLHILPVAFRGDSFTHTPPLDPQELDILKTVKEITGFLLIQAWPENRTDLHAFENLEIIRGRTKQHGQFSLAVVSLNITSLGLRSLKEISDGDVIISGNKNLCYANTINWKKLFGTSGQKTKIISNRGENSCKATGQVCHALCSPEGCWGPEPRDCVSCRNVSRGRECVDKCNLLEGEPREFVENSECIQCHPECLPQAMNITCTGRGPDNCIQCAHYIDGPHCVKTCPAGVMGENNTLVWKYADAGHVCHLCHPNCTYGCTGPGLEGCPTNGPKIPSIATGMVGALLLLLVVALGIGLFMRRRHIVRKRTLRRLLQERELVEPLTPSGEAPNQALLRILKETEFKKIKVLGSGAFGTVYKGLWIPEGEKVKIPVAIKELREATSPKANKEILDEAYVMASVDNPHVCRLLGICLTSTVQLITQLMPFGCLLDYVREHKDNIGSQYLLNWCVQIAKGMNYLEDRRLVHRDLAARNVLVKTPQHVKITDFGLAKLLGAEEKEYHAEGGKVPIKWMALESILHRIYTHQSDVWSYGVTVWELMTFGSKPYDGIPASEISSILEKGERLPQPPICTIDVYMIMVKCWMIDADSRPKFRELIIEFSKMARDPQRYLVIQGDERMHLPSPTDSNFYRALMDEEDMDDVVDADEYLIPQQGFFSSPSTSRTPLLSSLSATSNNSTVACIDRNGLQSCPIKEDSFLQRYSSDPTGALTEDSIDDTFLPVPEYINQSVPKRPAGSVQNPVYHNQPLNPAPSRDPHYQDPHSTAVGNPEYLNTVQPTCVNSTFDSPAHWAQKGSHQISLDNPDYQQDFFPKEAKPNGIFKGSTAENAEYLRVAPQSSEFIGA

As for `Cc1cccc(C)c1NCC(=O)N1CC(=O)Nc2ccccc21`, the “diameter of the inhibition zone (DIZ)” value in [1] stood at 8 mm; in series [2], 11 mm; in series [3], 10 mm; in series [4], 11 mm; in series [5], 9 mm; in series [6] it was 8 mm.

For the compound `COC(=O)CCc1nc2ccc(Br)cc2[nH]c1=O`, the IC50 was determined as 17.9 µM in series [7]; 15.6 µM in [8]; 0.957 µM in series [9]; 0.0754 µM in series [10]; 13.8 µM in [11]; 142 µM in [12].

For `O=C1CN(C(=O)CCl)c2ccccc2N1`, the “diameter of the inhibition zone (DIZ)” value in [4] came out at 15 mm; in series [6] it was 16 mm.

In series [13], `CCc1cnc2c(=O)[nH]c3cc([N+](=O)[O-])c(-n4ccnc4)nc3n12` had a Ki of 0.02 µM. In [14], this compound showed a 50% inhibitory concentration (IC50) of 0.3 µM.

`O=C1CN(C(=O)CNc2cccc(Cl)c2)c2ccccc2N1`: the “diameter of the inhibition zone (DIZ)” value in series [3] and in series [5] was 9 mm each time.

In series [15], `O=c1[nH]c2ccc(Cl)c(Cl)c2nc1C(F)(F)F` had an MBC of 200 µM (≈ 56.6 µg/mL) and an MIC of 33 µM. Besides, it took 108 µM to reach half-maximal cytotoxicity in [16] (CC50).

Compound `O=c1[nH]c2cc([N+](=O)[O-])c(-n3ccnc3)nc2n2ccnc12` came in with an inhibition constant Ki in [13] of 0.057 µM. Moreover, in series [14], it took 0.3 µM to reach half-maximal inhibition (IC50).

For `N[C@H](Cn1c(=O)cnc2ccc(F)cc21)[C@H]1CC[C@H](NCc2ncc3c(n2)NC(=O)CO3)CC1`, the MIC in series [17] was 0.5 µg/mL (≈ 1.07 µM); in series [18], under 0.06 µg/mL; in series [15], 1 µg/mL. For the same compound, the MIC90 is 4 µg/mL (≈ 8.56 µM) in [17], 1 µg/mL (≈ 2.14 µM) in series [18] and 16 µg/mL (≈ 34.2 µM) in series [19]. Besides, the figures for the IC50 in series [20] and in series [22] were 0.003 µM and over 333 µM, respectively. This compound also yielded a logD in series [21] of -0.32. The compound also returned a pKa in [23] of 7.28.

`O=c1[nH]c2ccc(Cl)c(Cl)c2nc1CBr` registered a 50% cytotoxic concentration (CC50) in [16] of 24 µM. This lies in the double-digit micromolar range.

In the case of `Cc1cc2[nH]c(=O)c(=O)[nH]c2cc1C=O`, the IC50 in [13] was found to be 11 µM; in series [24], 4 µM; in [25], 54 µM.

As for `O=Cc1ccn(-c2cc3c(cc2Cl)nc(O)c2nc(C(=O)O)nn23)c1`, the Ki in [13] turned out to be 0.53 µM; in series [26] it was 28 µM. For the same compound, the IC50 came to 8.9 µM in series [25], 43 µM in series [27], 1.2 µM in [28] and 23 µM in series [29].

On to `O=C(Nn1c(=O)c(=O)[nH]c2cc(C#CCO)ccc21)c1ccccc1`, for which the Ki was 37.4 µM in series [30], 9.78 µM in series [31] and 100 µM in [32].

Turning to `COc1ccc2[nH]c(=O)c(CBr)nc2c1Cl`, the half-maximal cytotoxic concentration (CC50) in [16] came to 21 µM.

Take `O=C(NCc1cc(Br)cc2[nH]c(=O)c(=O)[nH]c12)c1ccsc1`: the concentration for half-maximal inhibition (IC50) in series [33] came out at 2 µM; in series [34] it was 0.01 µM.

Regarding `COc1cnc2ccc(=O)n(C[C@@H](N)[C@H]3CC[C@H](NCc4ccc5c(n4)NC(=O)CO5)CC3)c2c1`, the MIC in series [17] was 1 µg/mL (≈ 2.09 µM); in series [18], 0.5 µg/mL (≈ 1.04 µM); in [15], 8 µg/mL; in [19] it was 8 µg/mL (≈ 16.7 µM). Moreover, the values for the MIC90 in [17] and in [18] were 4 µg/mL (≈ 8.36 µM) and 0.5 µg/mL (≈ 1.04 µM), respectively. For the same compound, the half-maximal inhibitory concentration (IC50) in [20] was 0.002 µM; in [22], over 333 µM. Moreover, the logD in series [21] is -0.86. Also, the pKa in series [23] came out at 7.66.

Consider `O=C(Nn1c(=O)c(=O)[nH]c2cc(C(F)(F)F)c(F)cc21)c1ccccc1O`, for which the Ki in series [35] amounted to 0.96 µM; in series [30] it was 4.12 µM; in series [36], 1.12 µM; in series [31], 0.908 µM; in [32] it was 26.4 µM.
